{"source": "patent US20150290235A1", "about": "“USE OF SMALL MOLECULE INHIBITORS/ACTIVATORS IN COMBINATION WITH (DEOXY)NUCLEOSIDE OR (DEOXY)NUCLEOTIDE ANALOGS FOR TREATMENT OF CANCER AND HEMATOLOGICAL MALIGNANCIES OR VIRAL INFECTIONS” (AB SCIENCE, priority 2012, published 2015)", "key": {"[1]": {"system": "Mia Paca-2 pancreatic cancer cells", "assay": "WST-1 proliferation assay, Mia Paca-2", "format": "cell-based, human", "conditions": "for response to gemcitabine after pre-incubation with TKI: Mia Paca-2, gemcitabine-resistant, 10 μM TKI"}, "[2]": {"biological_target": "human deoxycytidine kinase (dCK) (Homo sapiens, UniProt P27707)", "sequence (P27707 whole entry)": "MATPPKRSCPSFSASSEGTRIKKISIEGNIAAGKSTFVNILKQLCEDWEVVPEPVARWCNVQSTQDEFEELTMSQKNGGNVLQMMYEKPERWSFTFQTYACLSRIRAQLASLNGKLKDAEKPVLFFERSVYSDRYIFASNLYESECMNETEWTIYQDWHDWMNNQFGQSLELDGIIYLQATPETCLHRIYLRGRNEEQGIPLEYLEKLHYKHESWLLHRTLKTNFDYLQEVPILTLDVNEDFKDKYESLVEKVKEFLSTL", "assay": "dCK activity with UTP as phosphate donor (PK/LDH enzymatic-coupled assay)", "conditions": "nine dCK substrates"}, "[3]": {"system": "D17 osteosarcoma cells", "assay": "Alamar Blue cell proliferation assay, D17", "format": "cell-based, canine"}, "[4]": {"system": "Panc-1 pancreatic cancer cells", "assay": "WST-1 proliferation assay, Panc-1", "format": "cell-based, human", "conditions": "Panc-1", "method": "(§1) Cancer cell lines: Pancreatic cancer cells lines (Mia Paca-2, Panc-1, BxPC-3 and Capan-2) were obtained from Dr. Juan Iovanna (Inserm, France). Cells were maintained in RPMI (BxPC-3, Capan-2) or DMEM (Mia Paca-2, Panc-1) medium containing glutamax-1 (Lonza), supplemented with 100 U/ml penicillin/100 μg/ml streptomycin, and 10% fetal calf serum (FCS) (AbCys, Lot S02823S1800). Expression of tyrosine kinases was determined by RT-PCR using Hot Star Taq (Qiagen GmbH, Hilden, Germany) in a 2720 Thermal Cycler (Applied Biosystems).\n(§2) Treatment was started with the addition of the respective drug. […] After 72 hours WST-1 reagent was added and incubated with the cells for 4 hours before absorbance measurement at 450 nm in an EL800 Universal Microplate Reader (Bio-Tek Instruments Inc.). Media alone was used as a blank and proliferation in the absence of compounds served as positive control. Results are representative of three/four experiments."}, "[5]": {"system": "CMT27 breast carcinoma cells", "assay": "Alamar Blue cell proliferation assay, CMT27", "format": "cell-based, canine"}, "[6]": {"system": "Ba/F3 cells expressing human or mouse wild-type c-Kit", "conditions": "read-out: IC50, blocking stem cell factor-induced proliferation and c-Kit tyrosine phosphorylation; cited from earlier work"}, "[7]": {"system": "Ba/F3 cells expressing PDGFR-α", "conditions": "read-out: IC50, PDGF-BB-stimulated proliferation and PDGFR-α tyrosine phosphorylation; cited from earlier work"}, "[8]": {"system": "Abrams osteosarcoma cells", "assay": "Alamar Blue cell proliferation assay, Abrams", "format": "cell-based, canine"}, "[9]": {"system": "Capan-2 pancreatic cancer cells", "assay": "WST-1 proliferation assay, Capan-2", "format": "cell-based, human", "method": "as §1, §2"}, "[10]": {"system": "canine cancer cell lines other than C2", "assay": "cells", "conditions": "Canis lupus familiaris, read-out: IC50 masitinib single agent"}, "[11]": {"system": "Mia Paca-2 pancreatic tumors", "assay": "Nog-SCID mouse model of human pancreatic cancer", "format": "in vivo, Nog-SCID mice", "conditions": "day 56, 28 days of treatment; control 1023"}, "[12]": {"system": "CMT12 breast carcinoma cells", "assay": "Alamar Blue cell proliferation assay, CMT12", "format": "cell-based, canine"}, "[13]": {"system": "C2 mastocytoma cells", "assay": "Alamar Blue cell proliferation assay, C2", "format": "cell-based, canine"}, "[14]": {"system": "BxPC-3 pancreatic cancer cells", "assay": "WST-1 proliferation assay, BxPC-3", "format": "cell-based, human", "method": "as §1, §2"}, "[15]": {"conditions": "Canis lupus familiaris, 72 h, read-out: IC50 masitinib monotherapy"}, "[16]": {"conditions": "Canis lupus familiaris, Breast carcinoma cell, 72 h, read-out: IC50 masitinib monotherapy"}}, "note": "“And” between values parts separate entries of the source, which are not always exact repeats. Equal values may be shown once. “Also recorded” adds a separate entry of the source.", "data": [{"compound": "Cc1ccc(NC(=O)c2ccc(CN3CCN(C)CC3)cc2)cc1Nc1nccc(-c2cccnc2)n1", "note": "[imatinib, 4-[(4-methylpiperazin-1-yl)methyl]-N-[4-methyl-3-[(4-pyridin-3-ylpyrimidin-2-yl)amino]phenyl]benzamide]", "values": [{"measurement": "response to gemcitabine after pre-incubation with TKI", "setting": "[1]", "value": "did not result in an increased response"}]}, {"compound": "Cc1cn(-c2cc(NC(=O)c3ccc(C)c(Nc4nccc(-c5cccnc5)n4)c3)cc(C(F)(F)F)c2)cn1", "note": "[nilotinib, 4-methyl-N-[3-(4-methyl-1H-imidazol-1-yl)-5-(trifluoromethyl)phenyl]-3-[(4-pyridin-3-ylpyrimidin-2-yl)amino]benzamide]", "values": [{"measurement": "activation of dCK (substrate phosphorylation)", "setting": "[2]", "value": "relatively little or no activity; also recorded: did not activate dCK"}]}, {"compound": "COc1cc(Nc2c(C#N)cnc3cc(OCCCN4CCN(C)CC4)c(OC)cc23)c(Cl)cc1Cl", "note": "[bosutinib, 4-[(2,4-dichloro-5-methoxyphenyl)amino]-6-methoxy-7-[3-(4-methylpiperazin-1-yl)propoxy]quinoline-3-carbonitrile]", "values": [{"measurement": "activation of dCK (substrate phosphorylation)", "setting": "[2]", "value": "most active compounds; also recorded: activate dCK"}]}, {"compound": "CNC(=O)c1cc(Oc2ccc(NC(=O)Nc3ccc(Cl)c(C(F)(F)F)c3)cc2)ccn1", "note": "[sorafenib, 4-[4-[[4-chloro-3-(trifluoromethyl)phenyl]carbamoylamino]phenoxy]-N-methyl-pyridine-2-carboxamide]", "values": [{"measurement": "activation of dCK (substrate phosphorylation)", "setting": "[2]", "value": "relatively little or no activity; also recorded: did not activate dCK"}]}, {"compound": "C#Cc1cccc(Nc2ncnc3cc(OCCOC)c(OCCOC)cc23)c1", "note": "[erlotinib, N-(3-ethynylphenyl)-6,7-bis(2-methoxyethoxy) quinazolin-4-amine]", "values": [{"measurement": "activation of dCK (substrate phosphorylation)", "setting": "[2]", "value": "relatively little or no activity"}]}, {"compound": "Cc1ccc(NC(=O)c2ccc(CN3CCN(C)CC3)cc2)cc1Nc1nc(-c2cccnc2)cs1", "note": "[Masitinib, 4-(4-methylpiperazin-1-ylmethyl)-N-[4-methyl-3-(4-pyridin-3ylthiazol-2-ylamino)phenyl]benzamide]", "values": [{"measurement": "IC50", "setting": "[3]; [15]", "value": "> 10", "unit": "µM"}, {"measurement": "Sensitization factor (maximum)", "setting": "[3]; D17, gemcitabine with masitinib 5 μM", "value": 70}, {"measurement": "IC50", "setting": "[4]; Homo sapiens, 72 hours, 1% FCS, read-out: IC50, single agent", "value": "5 to 10", "unit": "µM"}, {"measurement": "reduction in gemcitabine IC50", "setting": "[4]; masitinib pre-treatment (10 μM)", "value": 10, "unit": "fold"}, {"measurement": "Sensitization factor (maximum)", "setting": "[5]; CMT27, gemcitabine with masitinib 10 μM", "value": ">75"}, {"measurement": "IC50", "setting": "[5]; [16]", "value": 8, "unit": "µM"}, {"measurement": "IC50", "setting": "[6]", "value": "0.15 ± 0.08", "unit": "µM"}, {"measurement": "IC50", "setting": "[7]", "value": "0.3 ± 0.005", "unit": "µM"}, {"measurement": "Sensitization factor (maximum)", "setting": "[8]; Abrams, gemcitabine with masitinib 5 μM", "value": 18}, {"measurement": "IC50", "setting": "[8]; [15]", "value": "> 10", "unit": "µM"}, {"measurement": "synergy of masitinib with gemcitabine", "setting": "[9]; Capan-2, gemcitabine-sensitive", "value": "no synergy"}, {"measurement": "IC50", "setting": "[9]; Homo sapiens, Capan-2, 72 hours, 1% FCS, read-out: IC50, single agent", "value": "5 to 10", "unit": "µM"}, {"measurement": "IC50", "setting": "[10]", "value": "5 to 20", "unit": "µM"}, {"measurement": "Tumor Volume, Median", "setting": "[11]", "value": 865, "unit": "mm^3"}, {"measurement": "Sensitization factor (maximum)", "setting": "[12]; CMT12, gemcitabine with masitinib 10 μM", "value": ">10"}, {"measurement": "IC50", "setting": "[12]; [16]", "value": 8, "unit": "µM"}, {"measurement": "Sensitization factor (maximum)", "setting": "[13]; C2, gemcitabine with masitinib 0.001 μM", "value": 1}, {"measurement": "IC50", "setting": "[13]; [15]", "value": 0.03, "unit": "µM"}, {"measurement": "IC50", "setting": "[1]; Homo sapiens, Mia Paca-2, 72 hours, 1% FCS, read-out: IC50, single agent", "value": "5 to 10", "unit": "µM"}, {"measurement": "response to gemcitabine after pre-incubation with TKI", "setting": "[1]", "value": "able to restore sensitivity to gemcitabine"}, {"measurement": "reduction in gemcitabine IC50", "setting": "[1]; Mia Paca-2, pre-treated with 5 and 10 μM masitinib (10 μM)", "value": "> 400 fold and 400 fold"}, {"measurement": "synergy of masitinib with gemcitabine", "setting": "[14]; BxPC-3, gemcitabine-sensitive", "value": "no synergy"}, {"measurement": "IC50", "setting": "[14]; Homo sapiens, BxPC-3, 72 hours, 1% FCS, read-out: IC50, single agent", "value": "5 to 10", "unit": "µM"}]}, {"compound": "CCN(CC)CCNC(=O)c1c(C)[nH]c(/C=C2\\C(=O)Nc3ccc(F)cc32)c1C", "note": "[sunitinib, N-(2-diethylaminoethyl)-5-[(Z)-(5-fluoro-2-oxo-1H-indol-3-ylidene)methyl]-2,4-dimethyl-1H-pyrrole-3-carboxamide]", "values": [{"measurement": "activation of dCK (substrate phosphorylation)", "setting": "[2]", "value": "relatively little or no activity; also recorded: did not activate dCK"}]}, {"compound": "Cc1nc(Nc2ncc(C(=O)Nc3c(C)cccc3Cl)s2)cc(N2CCN(CCO)CC2)n1.O", "note": "[dasatinib, N-(2-chloro-6-methylphenyl)-2-[[6-[4-(2-hydroxyethyl)-1-piperazinyl]-2-methyl-4-pyrimidinyl]amino]-5-thiazole carboxamide monohydrate]", "values": [{"measurement": "response to gemcitabine after pre-incubation with TKI", "setting": "[1]", "value": "did not result in an increased response"}, {"measurement": "cell proliferation with TKI alone", "setting": "[1]; Mia Paca-2, imatinib 10 μM, dasatinib >0.1 μM", "value": "partially inhibited"}]}, {"compound": "Cc1[nH]c(/C=C2\\C(=O)Nc3ccc(F)cc32)c(C)c1C(=O)NCCN1CCCC1", "note": "[toceranib, (Z)-5-[(5-Fluoro-2-oxo-1,2-dihydro-3H-indol-3-ylidene)methyl]-2,4-dimethyl-N-(2-pyrrolidin-1-ylethyl)-1H-pyrrole-3-carboxamide]", "values": [{"measurement": "activation of dCK (substrate phosphorylation)", "setting": "[2]", "value": "relatively little or no activity; also recorded: did not activate dCK"}]}, {"compound": "Cc1cc(Nc2cc(N3CCN(C)CC3)nc(Sc3ccc(NC(=O)C4CC4)cc3)n2)[nH]n1", "note": "[tozacertib]", "values": [{"measurement": "activation of dCK (substrate phosphorylation)", "setting": "[2]", "value": "most active compounds; also recorded: activate dCK"}]}, {"compound": "COc1cc(Nc2ncc(F)c(Nc3ccc4c(n3)N(COP(=O)(O)O)C(=O)C(C)(C)O4)n2)cc(OC)c1OC", "note": "[fostamatinib, [6-({5-fluoro-2-[(3,4,5-trimethoxyphenyl)amino]pyrimidin-4-yl}amino)-2,2-dimethyl-3-oxo-2,3-dihydro-4H-pyrido[3,2-b][1,4]oxazin-4-yl]methyl dihydrogen phosphate]", "values": [{"measurement": "activation of dCK (substrate phosphorylation)", "setting": "[2]", "value": "relatively little or no activity; also recorded: did not activate dCK"}]}, {"compound": "CO[C@@H](C(=O)N1Cc2n[nH]c(NC(=O)c3ccc(N4CCN(C)CC4)cc3)c2C1)c1ccccc1", "note": "[danusertib]", "values": [{"measurement": "activation of dCK (substrate phosphorylation)", "setting": "[2]", "value": "most active compounds; also recorded: activate dCK"}]}]}
